# Source: publication PMC4191406, “Tumor-targeted in vivo gene silencing via systemic delivery of cRGD-conjugated siRNA” (Nucleic Acids Research, 2014)
# Assay: Serum cytokines by ELISA (innate immune response)
# Type: in vivo, athymic nude mice (nu/nu)
# Conditions: single injection 1 nmol, 6 and 24 h after the injection, n = 3, versus saline
# Method: Athymic nude female mice (nu/nu) were injected with 1 nmol (∼0.753 mg/kg; n = 3) of cRGD-siRNA or 1 nmol of cRGD alone (∼0.045 mg/kg; n = 3) in 150 μl of saline. Mice (n = 3) injected with saline alone (200 μl) were used as negative controls. Six hours and 24 h after the injection, 300 μl of blood was drawn from each mouse and the serum was collected. Levels of serum cytokines IFN-α, IFN-γ, IL-6 and IL-12 were determined by ELISA, following manufacturer's recommendations (eBioscience/Affymetrix, USA).
smiles,measurement,value
"N=C(N)NCCC[C@@H]1NC(=O)[C@H](CCCCNC(=O)COCCOCCNC(=O)CCN2C(=O)C=CC2=O)NC(=O)[C@@H](Cc2ccccc2)NC(=O)[C@H](CC(=O)O)NC(=O)CNC1=O [cRGD, cyclo(Arg-Gly-Asp-D-Phe-Lys[PEG-MAL])]","serum levels of interferons α and γ, interleukins 6 and 12",No significant difference
